Experimental data as given in patent US7776558B2, “Human G protein-coupled receptor and modulators thereof for the treatment of cell death-related disorders” (Arena Pharmaceuticals, Inc., priority 2003, dated 2010).
pEC50: −log10 of the molar value. Where no end group is shown, it is not given here.

Legend:
[1] = tested on: differentiated SH-SY5Y cells; assay: Aβ-induced cell death of differentiated SH-SY5Y cells; format: cell-based, human; conditions: AB1-42 80 μg/ml; Humanin 1 μM; Compound 1 20 μM, 5 μM or 1 μM; Trypan Blue staining; FIG. 12
Protocol: SH-SY5Y is a human neuroblastoma cell line. Differentiation of SH-SY5Y into neuronal-like cells was carried out by treatment with retinoic acid (10 μM) for five days followed by treatment with BDNF (10 ng/ml) for two days. Aβ (AB1-42) was purchased from Biosource International (Camarillo, Calif.; catalog no. 03-111).
The assay was carried out in serum-free medium. AB1-42 was used at 80 μg/ml. […] Compound 1 was used at either 20 μM, 5 μM or 1 μM.
Cell survival was determined by Trypan Blue staining.

[2] = mice; Mamiya & Ukai 2001; cited from earlier work
[3] = tested on: human cerebrovascular smooth muscle cells; conditions: cited from earlier work
human FPRL2 = molecular target: T1, human FPRL2 (Homo sapiens, UniProt P25089); assay: Melanophore assay (pigment aggregation, Gi coupling); format: cell-based; parameters: expressed in transfected cells; conditions: FPRL2 double tagged (HA/V5), transient; FIG. 4; read-out: EC50 of promoted pigment aggregation in melanophore (Gi coupling)
T1 sequence (P25089 with tags, fused parts or gaps): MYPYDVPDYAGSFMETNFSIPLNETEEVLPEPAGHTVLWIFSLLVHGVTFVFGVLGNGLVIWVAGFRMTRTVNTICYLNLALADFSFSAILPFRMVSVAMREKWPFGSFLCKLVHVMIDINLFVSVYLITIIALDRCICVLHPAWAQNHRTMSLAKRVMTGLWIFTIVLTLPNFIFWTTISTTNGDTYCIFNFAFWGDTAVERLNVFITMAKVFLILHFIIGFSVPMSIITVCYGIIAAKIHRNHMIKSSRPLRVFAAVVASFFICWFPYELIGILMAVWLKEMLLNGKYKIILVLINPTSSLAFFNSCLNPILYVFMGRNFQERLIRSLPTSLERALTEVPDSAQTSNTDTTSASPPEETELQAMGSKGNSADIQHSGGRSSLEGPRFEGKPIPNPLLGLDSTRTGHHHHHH
Source text: Melanophores are skin cells found in lower vertebrates. They contain pigmented organelles termed melanosomes. Melanophores are able to redistribute these melanosomes along a microtubule network upon G-protein coupled receptor (GPCR) activation. The result of this pigment movement is an apparent lightening or darkening of the cells. In melanophores, the decreased levels of intracellular cAMP that result from activation of a Gi-coupled receptor cause melanosomes to migrate to the center of the cell, resulting in a dramatic lightening in color. If cAMP levels are then raised, following activation of a Gs-coupled receptor, the melanosomes are re-dispersed and the cells appear dark again. The increased levels of diacylglycerol that result from activation of Gq-coupled receptors can also induce this re-dispersion. In addition, the technology is also suited to the study of certain receptor tyrosine kinases. […] The response can be easily detected using a conventional absorbance microplate reader or a modest video imaging system. […]
Melanophores can be utilized to identify compounds, including natural ligands, against GPCRs. […] The test cells are then contacted with chemical compounds, and it is determined whether the pigment disposition in the cells changed from the initial state of pigment disposition. […]

FPRL1 [4] = molecular target: T2, FPRL1 (Homo sapiens, UniProt P25090); conditions: Ying et al. 2002; cited from earlier work
T2 sequence (P25090 1-351): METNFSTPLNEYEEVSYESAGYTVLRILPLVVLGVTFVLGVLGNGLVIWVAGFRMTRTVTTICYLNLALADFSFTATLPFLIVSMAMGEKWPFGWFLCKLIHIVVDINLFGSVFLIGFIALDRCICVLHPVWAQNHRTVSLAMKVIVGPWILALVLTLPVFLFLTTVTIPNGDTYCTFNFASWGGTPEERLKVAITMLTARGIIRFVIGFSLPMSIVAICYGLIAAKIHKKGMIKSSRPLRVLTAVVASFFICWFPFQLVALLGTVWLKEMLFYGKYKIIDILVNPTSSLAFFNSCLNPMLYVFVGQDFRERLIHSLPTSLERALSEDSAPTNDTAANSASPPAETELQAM

FPRL1 [5] = molecular target: T2, FPRL1; assay: [35S]GTPγS binding assay, membranes of transiently transfected CHO cells; format: biochemical; parameters: Full-Length Cloning of Human GPCRs; expressed in transfected cells; host or cells: CHO-K1 cells, transient, pCMV; plasma membranes; conditions: FIG. 3 panel B, read-out: EC50 at FPRL1, promoted [35S]GTPγS binding

Compound	Protection from Aβ-induced cell death [1]	Learning and memory impairment [2]	Rescue from Aβ-induced toxicity [3]	pEC50 (human FPRL2)	Use of FPRL1 as receptor (FPRL1 [4])	pEC50 (FPRL1 [5])
CC(C)c1ccc2c(c1)CCC1C(C)(C(N)=O)CCCC21C (stereo not shown) [Compound 1, 7-Isopropyl-1,4a-dimethyl-1,2,3,4,4a,9,10,10a-octahydro-phenanthrene-1-carboxylic acid amide]	protect differentiated SH-SY5Y cells from Aβ-induced cell death	–	–	–	–	–
CC[C@H](C)[C@H](NC(=O)[C@H](CCC(=O)O)NC(=O)[C@H](CO)NC(=O)[C@@H](NC(=O)[C@H](CC(C)C)NC(=O)[C@H](CC(C)C)NC(=O)[C@H](CC(C)C)NC(=O)[C@H](CC(C)C)NC(=O)[C@H](CS)NC(=O)[C@H](CO)NC(=O)[C@H](Cc1ccccc1)NC(=O)CNC(=O)[C@H](CCCNC(=N)N)NC(=O)[C@@H]1CCCN1C(=O)[C@H](C)NC(=O)[C@@H](N)CCSC)[C@@H](C)O)C(=O)N[C@@H](CC(=O)O)C(=O)N[C@@H](CC(C)C)C(=O)N1CCC[C@H]1C(=O)N[C@H](C(=O)N[C@@H](CCCCN)C(=O)N[C@@H](CCCNC(=N)N)C(=O)N[C@@H](CCCNC(=N)N)C(=O)N[C@@H](C)C(=O)O)C(C)C [Humanin]	protect differentiated SH-SY5Y cells from Aβ-induced cell death	improve learning and memory impairment in mice	rescues human cerebrovascular smooth muscle cells from Aβ-induced toxicity	~6.62	uses FPRL1 as a functional receptor	–
MAPRGFSCLLLLTGEIDLPVKRRA [[Gly14]-Humanin]	–	–	–	–	–	~5.82
